According to ChEMBL document CHEMBL5223082, “Alkyl-Aryl-Vancomycins: Multimodal Glycopeptides with Weak Dependence on the Bacterial Metabolic State” (J Med Chem, 2021):
In brackets after ≈: the same amount, converted by molar mass. Activity calls are given as the source filed them. No cut-off for these calls is given here.

Tests used:
Enterococcus [1] = assay: Potency index, ratio of Vancomycin MIC to test compound MIC for antibacterial activity against Vancomycin-resistant Enterococci ATCC 51559; assay type: functional
[2] = Induction of hemolysis in human erythrocytes incubated for 1 hr by microtiter plater reader analysis; assay type: toxicity, cell-based, Erythrocyte
Enterococcus [3] = assay: Antibacterial activity against Vancomycin-resistant Enterococci NR30909 assessed as inhibition of bacterial growth incubated for 18 to 24 hrs by CLSI microbroth dilution method; assay type: functional; settings: time 18-24 hrs
Staphylococcus aureus [4] = assay: Antibacterial activity against Methicillin-resistant Staphylococcus aureus ATCC 33591 assessed as inhibition of bacterial growth incubated for 18 to 24 hrs by CLSI microbroth dilution method; assay type: functional; settings: time 18-24 hrs
Staphylococcus aureus [5] = assay: Antibacterial activity against Vancomycin-resistant Staphylococcus aureus 4 assessed as inhibition of bacterial growth incubated for 18 to 24 hrs by CLSI microbroth dilution method; assay type: functional; settings: time 18-24 hrs
Staphylococcus aureus [6] = assay: Potency index, ratio of Vancomycin MIC to test compound MIC for antibacterial activity against Vancomycin-resistant Staphylococcus aureus 12; assay type: functional
Enterococcus [7] = assay: Potency index, ratio of Vancomycin MIC to test compound MIC for antibacterial activity against Vancomycin-resistant Enterococci NR30903; assay type: functional, NR 30903
Staphylococcus aureus [8] = assay: Antibacterial activity against Vancomycin-resistant Staphylococcus aureus 12 assessed as inhibition of bacterial growth incubated for 18 to 24 hrs by CLSI microbroth dilution method; assay type: functional; settings: time 18-24 hrs
Enterococcus [9] = assay: Antibacterial activity against Vancomycin-resistant Enterococci NR30903 assessed as inhibition of bacterial growth incubated for 18 to 24 hrs by CLSI microbroth dilution method; assay type: functional; settings: time 18-24 hrs
Staphylococcus aureus [10] = assay: Potency index, ratio of Vancomycin MIC to test compound MIC for antibacterial activity against Vancomycin-resistant Staphylococcus aureus 4; assay type: functional
Enterococcus [11] = assay: Potency index, ratio of Vancomycin MIC to test compound MIC for antibacterial activity against Vancomycin-resistant Enterococci NR30909; assay type: functional, NR 30909
[12] = Induction of hemolysis in human erythrocytes at 250 uM incubated for 1 hr by microtiter plater reader analysis; assay type: toxicity, cell-based, Erythrocyte; settings: read-out: Activity
Enterococcus [13] = assay: Antibacterial activity against Vancomycin-resistant Enterococci ATCC 51559 assessed as inhibition of bacterial growth incubated for 18 to 24 hrs by CLSI microbroth dilution method; assay type: functional; settings: time 18-24 hrs
Staphylococcus aureus [14] = assay: Potency index, ratio of Vancomycin MIC to test compound MIC for antibacterial activity against Methicillin-resistant Staphylococcus aureus ATCC 33591; assay type: functional
Staphylococcus aureus [15] = assay: Potency index, ratio of Vancomycin MIC to test compound MIC for antibacterial activity against Vancomycin-resistant Staphylococcus aureus 1; assay type: functional
Staphylococcus aureus [16] = assay: Antibacterial activity against Vancomycin-resistant Staphylococcus aureus 1 assessed as inhibition of bacterial growth incubated for 18 to 24 hrs by CLSI microbroth dilution method; assay type: functional; settings: time 18-24 hrs
Enterococcus [17] = assay: Potency index, ratio of Vancomycin MIC to test compound MIC for antibacterial activity against Vancomycin-resistant Enterococci ATCC 51575; assay type: functional
Enterococcus [18] = assay: Antibacterial activity against Vancomycin-resistant Enterococci ATCC 51575 assessed as inhibition of bacterial growth incubated for 18 to 24 hrs by CLSI microbroth dilution method; assay type: functional; settings: time 18-24 hrs
Cell membrane [19] = assay: Induction of cytoplasmic membrane depolarization in Vancomycin-resistant Enterococci assessed as increase in fluorescence intensity at 10 uM measured for 35 to 40 mins by DiSC3(5) dye based fluorescence analysis; assay type: subcellular; settings: Enterococcus, time 35-40 min
Staphylococcus aureus [20] = assay: Antibacterial activity against Methicillin-resistant Staphylococcus aureus ATCC 33591 persister cells assessed as reduction in bacterial colonies at 40 uM incubated for 24 hrs in broth solution followed by incubation on agar plate for 48 hrs by spot plating method; assay type: functional, organism-based; settings: time 72.0 hrs
[21] = target: T1, Septum site-determining protein MinD (Bacillus subtilis (strain 168)) (UniProt Q01464); assay: Delocalization of GFP tagged-MinD in Bacillus subtilis 168 at PEC incubated for 15 mins by fluorescence microscopy
T1 sequence (whole entry): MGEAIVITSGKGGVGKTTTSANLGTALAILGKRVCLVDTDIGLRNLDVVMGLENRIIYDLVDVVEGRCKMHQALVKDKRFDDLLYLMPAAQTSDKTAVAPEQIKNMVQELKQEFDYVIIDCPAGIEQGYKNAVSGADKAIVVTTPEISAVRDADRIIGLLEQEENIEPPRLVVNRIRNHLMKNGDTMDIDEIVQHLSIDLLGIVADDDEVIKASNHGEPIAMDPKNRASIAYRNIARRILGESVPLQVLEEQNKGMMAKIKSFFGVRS

Staphylococcus aureus [22] = assay: Ratio of MIC for antibacterial activity against Methicillin-resistant Staphylococcus aureus ATCC 33591 in presence of N,N'-diacetyl-L-Lys-D-Ala-D-Ala to MIC for antibacterial activity against Methicillin-resistant Staphylococcus aureus ATCC 33591; assay type: functional
Staphylococcus aureus [23] = assay: Bactericidal activity against methicillin-resistant Staphylococcus aureus ATCC 33591 assessed as reduction in bacterial colonies at MIC to 8XMIC incubated for 6 hrs in broth solution followed by culturing for 24 hrs on agar plate by spot plating method; assay type: functional, organism-based; settings: time 30.0 hrs
Staphylococcus aureus [24] = assay: Antibacterial activity against Methicillin-resistant Staphylococcus aureus ATCC 33591 assessed as time duration of post-antibiotic effect for suppression of bacterial growth at 10XMIC incubated for 1 hr in broth solution followed by washing for drug removal and subsequent plating on nutrient agar plate; assay type: functional
Staphylococcus aureus [25] = assay: Antibiofilm activity against Methicillin-resistant Staphylococcus aureus ATCC 33591 assessed as log reduction in bacterial viability within the biofilms at 20 uM incubated for 24 hrs in broth solution followed by culturing on agar plate for 24 hrs by spot plating method; assay type: functional; settings: time 48 hrs
Cell membrane [26] = assay: Induction of cytoplasmic membrane depolarization in Methicillin-resistant Staphylococcus aureus ATCC 33591 assessed as increase in fluorescence intensity at 10 uM measured for 35 to 40 mins by DiSC3(5) dye based fluorescence analysis; assay type: subcellular; settings: time 35-40 min
Staphylococcus aureus [27] = assay: Antibiofilm activity against Methicillin-resistant Staphylococcus aureus ATCC 33591 assessed as bacterial biofilm thickness at 20 uM incubated for 24 hrs by confocal laser scanning microscopy (reference value: 8 micrometer); assay type: functional
Staphylococcus aureus [28] = assay: Antibacterial activity against Methicillin-resistant Staphylococcus aureus ATCC 33591 assessed as log reduction in bacterial colonies at 10XMIC incubated for 1 hr in broth solution followed by plating on nutrient agar plate; assay type: functional
Staphylococcus aureus [29] = assay: Ratio of MIC for antibacterial activity against Methicillin-resistant Staphylococcus aureus ATCC 33591 measured after 27 passages to MIC for antibacterial activity against Methicillin-resistant Staphylococcus aureus ATCC 33591 measured after 18 to 24 hrs incubation; assay type: functional
Cell membrane [30] = assay: Induction of cytoplasmic membrane depolarization in Bacillus subtilis assessed as increase in fluorescence intensity at 10 uM measured for 35 to 40 mins by DiSC3(5) dye based fluorescence analysis; assay type: subcellular; settings: time 35-40 min
Bacillus subtilis [31] = assay: Antibacterial activity against Bacillus subtilis 168 assessed as concentration that requires for bacterial growth retardation measured for every 30 mins; assay type: functional
Staphylococcus aureus [32] = assay: Antibacterial activity against Methicillin-resistant Staphylococcus aureus ATCC 33591 assessed as inhibition of bacterial growth preincubated compound with teichoic-acid for 1 hr followed by incubation with bacterial culture for 18 to 24 hrs by CLSI microbroth dilution method; assay type: functional; settings: time 19-25 hrs
Staphylococcus aureus [33] = assay: Antibacterial activity against Methicillin-resistant Staphylococcus aureus ATCC 33591 assessed as inhibition of bacterial growth preincubated compound with N,N'-diacetyl-L-Lys-D-Ala-D-Ala for 10 mins followed by incubation with bacterial culture for 18 to 24 hrs by CLSI microbroth dilution method; assay type: functional; settings: time 1090-1450 min
Bacillus subtilis [34] = assay: Inhibition of cell wall biosynthesis in Bacillus subtilis 168 assessed as bubble-like formation on bacterial cell surface at PEC incubated for 15 mins by light microscopic analysis; assay type: functional, organism-based

Row | Compound | Ratio (Enterococcus [1]) | HC50 at 1 h [2] [µM] | MIC (Enterococcus [3]) [µM] | MIC (Staphylococcus aureus [4]) [µM] | MIC (Staphylococcus aureus [5]) [µM] | Ratio (Staphylococcus aureus [6]) | Ratio (Enterococcus [7]) | MIC (Staphylococcus aureus [8]) [µM] | MIC (Enterococcus [9]) [µM] | Ratio (Staphylococcus aureus [10]) | Ratio (Enterococcus [11]) | hemolysis at 1 h, 250 µM [12] [%] | MIC (Enterococcus [13]) [µM] | Ratio (Staphylococcus aureus [14]) | Ratio (Staphylococcus aureus [15]) | MIC (Staphylococcus aureus [16]) [µM] | Ratio (Enterococcus [17]) | MIC (Enterococcus [18]) [µM] | further results
1 | CCCCCCNC(=O)C[N+](C)(C)CCCNC(=O)c1ccc(CN[C@@]2(C)C[C@H](O[C@H]3[C@H](Oc4c5cc6cc4Oc4ccc(cc4Cl)[C@@H](O)[C@@H](NC(=O)[C@@H](CC(C)C)NC)C(=O)N[C@@H](CC(N)=O)C(=O)N[C@H]6C(=O)N[C@H]4C(=O)N[C@H](C(=O)N[C@H](C(=O)O)c6cc(O)cc(O)c6-c6cc4ccc6O)[C@H](O)c4ccc(c(Cl)c4)O5)O[C@H](CO)[C@@H](O)[C@@H]3O)O[C@@H](C)[C@H]2O)cc1 | 10 | > 250 | 14.9 | 0.4 | 29.8 | 10 | 10 | 7.4 | 7.4 | 10 | 10 | 1 | > 30 | 2 | 10 | 14.9 | 10 | > 30 | 
2 | CCCCCCCCNC(=O)c1ccc(CN[C@@]2(C)C[C@H](O[C@H]3[C@H](Oc4c5cc6cc4Oc4ccc(cc4Cl)[C@@H](O)[C@@H](NC(=O)[C@@H](CC(C)C)NC)C(=O)N[C@@H](CC(N)=O)C(=O)N[C@H]6C(=O)N[C@H]4C(=O)N[C@H](C(=O)N[C@H](C(=O)O)c6cc(O)cc(O)c6-c6cc4ccc6O)[C@H](O)c4ccc(c(Cl)c4)O5)O[C@H](CO)[C@@H](O)[C@@H]3O)O[C@@H](C)[C@H]2O)cc1 | 166 | > 250 | 2.1 (≈ 3.56 µg/mL) | 1 (≈ 1.69 µg/mL) | 2.1 (≈ 3.56 µg/mL) | 166 | 166 | 0.3 (≈ 0.508 µg/mL) | 4.2 (≈ 7.12 µg/mL) | 166 | 166 |  | 8.3 (≈ 14.1 µg/mL) | 2 | 166 | 4.2 (≈ 7.12 µg/mL) | 166 | 1 (≈ 1.69 µg/mL) | 
3 | CN[C@H](CC(C)C)C(=O)N[C@H]1C(=O)N[C@@H](CC(N)=O)C(=O)N[C@H]2C(=O)N[C@H]3C(=O)N[C@H](C(=O)N[C@H](C(=O)O)c4cc(O)cc(O)c4-c4cc3ccc4O)[C@H](O)c3ccc(c(Cl)c3)Oc3cc2cc(c3O[C@@H]2O[C@H](CO)[C@@H](O)[C@H](O)[C@H]2O[C@H]2C[C@](C)(NCc3ccc(C(=O)NCCC[N+](C)(C)Cc4ccc(-c5ccccc5)cc4)cc3)[C@H](O)[C@H](C)O2)Oc2ccc(cc2Cl)[C@H]1O | 47 | > 250 | 3.7 | 0.5 | 7.3 | 47 | 47 | 3.7 | 7.3 | 47 | 47 | 0 | 14.7 |  | 47 | 7.3 | 47 | 14.7 | 
4 | CN[C@H](CC(C)C)C(=O)N[C@H]1C(=O)N[C@@H](CC(N)=O)C(=O)N[C@H]2C(=O)N[C@H]3C(=O)N[C@H](C(=O)N[C@H](C(=O)O)c4cc(O)cc(O)c4-c4cc3ccc4O)[C@H](O)c3ccc(c(Cl)c3)Oc3cc2cc(c3O[C@@H]2O[C@H](CO)[C@@H](O)[C@H](O)[C@H]2O[C@H]2C[C@](C)(N)[C@H](O)[C@H](C)O2)Oc2ccc(cc2Cl)[C@H]1O [VANCOMYCIN] |  |  | 346 (≈ 501 µg/mL) | 0.6 (≈ 0.87 µg/mL) | 346 (≈ 501 µg/mL) |  |  | 346 (≈ 501 µg/mL) | 692 (≈ 1000 µg/mL) |  |  |  | 1380 (≈ 2010 µg/mL) |  |  | 346 (≈ 501 µg/mL) |  | 346 (≈ 501 µg/mL) | Activity (Cell membrane [19]): inactive; Activity (Staphylococcus aureus [20]): inactive; Activity [21]: inactive; Ratio (Staphylococcus aureus [22]): >40; Activity (Staphylococcus aureus [23]): Active; Time (Staphylococcus aureus [24]): 6 h; Activity (Staphylococcus aureus [25]): 0.9 log10CFU/ml; Activity (Cell membrane [26]): inactive; Activity (Staphylococcus aureus [27]): 7 um; Activity (Staphylococcus aureus [28]): 0.5 log10CFU/ml; Ratio (Staphylococcus aureus [29]): 2; Activity (Cell membrane [30]): inactive; EC (Bacillus subtilis [31]): 0.4 µM; MIC (Staphylococcus aureus [32]): 0.6 µM (≈ 0.87 µg/mL); MIC (Staphylococcus aureus [33]): > 30 µM; inhibition (Bacillus subtilis [34]): Active
